Counter-ions that a name gives are not always drawn. Like-named read-outs stand apart in the source and are kept apart here.
Target: T1, canine TRPM8 (Canis lupus familiaris, UniProt Q1A7N1)
T1 construct: expressed in transfected cells
Assay: In Vitro Canine TRPM8 Functional Assay (icilin-induced intracellular Ca2+, FLIPR/FDSS)
Format: cell-based
Conditions: for inhibition at 0.2 µM: HEK293, 0.2 μM compound, icilin activation, read-out: % Inh @ 0.2 μM
Method: The functional activity of representative compounds of the formula (I) of the present invention was quantified by measuring changes in intracellular calcium concentration using a Ca^2+-sensitive fluorescent dye. The changes in fluorescent signal were monitored by a fluorescence plate reader, either a FLIPR™ (Molecular Devices) or FDSS (Hamamatsu).
HEK293 cells stably expressing canine TRPM8 were routinely grown as monolayers in Dulbecco's minimum essential medium supplemented with 10% FBS, 2 mM L-glutamine, 100 units/mL penicillin, 100 ug/mL streptomycin and 400 μg/mL G418. Cells were maintained in 5% CO2 at 37° C. At 24 hr prior to assay, cells were seeded in black wall, clear-base poly-D-lysine coated 384-well plates (BD Biosciences, NJ, USA) at a density of 5,000 cells per well in culture medium and grown overnight in 5% CO2 at 37° C. On assay day, growth media was removed, and cells were loaded with Calcium 3 Dye (Molecular Devices) for 35 min at 37° C., under 5% CO2 and then incubated for 25 min at room temperature and atmosphere. Subsequently, cells were tested for agonist-induced increases in intracellular Ca^2+ levels using FLIPR™ or FDSS. Cells were treated with compounds of the formula (I) at varying concentrations and intracellular […] was measured for 5 min prior to the addition of icilin to all wells to achieve a final concentration that produces approximately an 80% maximal response.
Basal FI was subtracted prior to normalizing data to percent of maximal response. Curves were generated using the average of quadruplicate wells for each data point using nonlinear regression of either sigmoidal dose response or sigmoidal dose response (variable slope). Finally, the EC50 and IC50 values were calculated with the best-fit curve determined by GraphPad Prism

[1] = HEK293 cells stably expressing canine TRPM8
[2] = HEK293 cells stably expressing canine TRPM8, icilin at approx. 80% maximal response, eight-point concentration-response, read-out: IC50

T1 sequence (Q1A7N1 1-1104): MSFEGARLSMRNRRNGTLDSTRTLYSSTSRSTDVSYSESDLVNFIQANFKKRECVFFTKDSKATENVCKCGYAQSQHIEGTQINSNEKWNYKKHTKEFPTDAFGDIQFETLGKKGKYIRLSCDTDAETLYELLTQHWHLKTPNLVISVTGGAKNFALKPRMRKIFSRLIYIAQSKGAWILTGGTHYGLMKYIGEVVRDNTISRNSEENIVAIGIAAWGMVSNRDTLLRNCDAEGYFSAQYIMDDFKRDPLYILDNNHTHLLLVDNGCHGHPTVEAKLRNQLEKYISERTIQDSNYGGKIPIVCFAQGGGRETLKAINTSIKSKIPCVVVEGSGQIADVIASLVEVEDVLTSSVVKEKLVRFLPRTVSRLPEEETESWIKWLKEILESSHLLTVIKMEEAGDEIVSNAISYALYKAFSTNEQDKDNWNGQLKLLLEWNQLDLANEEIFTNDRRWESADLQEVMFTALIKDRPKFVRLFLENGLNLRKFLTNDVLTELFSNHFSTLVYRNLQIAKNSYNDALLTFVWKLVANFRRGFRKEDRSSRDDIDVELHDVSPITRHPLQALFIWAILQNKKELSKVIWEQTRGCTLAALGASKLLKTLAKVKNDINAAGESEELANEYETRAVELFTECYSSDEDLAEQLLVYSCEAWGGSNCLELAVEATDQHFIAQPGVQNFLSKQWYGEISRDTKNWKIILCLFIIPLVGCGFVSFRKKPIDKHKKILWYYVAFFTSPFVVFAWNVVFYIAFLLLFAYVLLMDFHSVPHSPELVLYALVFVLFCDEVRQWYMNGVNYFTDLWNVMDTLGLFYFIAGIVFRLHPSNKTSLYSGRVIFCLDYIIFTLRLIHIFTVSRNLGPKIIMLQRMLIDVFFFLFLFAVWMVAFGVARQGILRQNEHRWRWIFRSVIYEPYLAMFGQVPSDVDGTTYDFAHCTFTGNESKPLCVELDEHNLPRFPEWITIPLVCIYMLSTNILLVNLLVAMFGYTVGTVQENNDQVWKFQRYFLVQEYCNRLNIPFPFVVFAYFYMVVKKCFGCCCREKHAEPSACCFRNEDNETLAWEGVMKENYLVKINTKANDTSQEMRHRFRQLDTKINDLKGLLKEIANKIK

Cc1ccc2nc(N(Cc3ccc(C(F)(F)F)cc3)S(=O)(=O)c3ccccc3)n(C)c2c1 [compound 68]
inhibition at 0.2 µM [1]: 99% | IC50 [2]: 24 nM

Cn1c(N(Cc2ccc(OC(F)(F)F)cc2)S(=O)(=O)c2ccc(F)cc2)nc2ccccc21 [compound 32]
inhibition at 0.2 µM [1]: 94% | IC50 [2]: 6 nM

Cn1c(N(Cc2ccc(F)cc2)S(=O)(=O)c2ccccc2)nc2ccccc21 [compound 8]
inhibition at 0.2 µM [1]: 101% | IC50 [2]: 4 nM

Cc1cccc2c1nc(N(Cc1ccc(C(F)(F)F)c(F)c1)S(=O)(=O)c1ccccc1)n2C [compound 76]
inhibition at 0.2 µM [1]: 101% | IC50 [2]: 9.4 nM

Cn1c(N(Cc2cc(C(F)(F)F)ccc2F)S(=O)(=O)c2ccccc2)nc2ccccc21 [compound 22]
inhibition at 0.2 µM [1]: 102% | IC50 [2]: 6 nM

Cn1c(N(Cc2ccc(C(F)(F)F)cc2)S(=O)(=O)c2ccc(Cl)cc2)nc2ccccc21 [compound 41]
inhibition at 0.2 µM [1]: 102% | IC50 [2]: 9 nM

Cn1c(N(Cc2ccc(OC(F)F)cc2)S(=O)(=O)c2ccccc2)nc2ccccc21 [compound 23]
inhibition at 0.2 µM [1]: 102% | IC50 [2]: 2 nM

Cn1c(N(Cc2ccc(C(F)(F)F)cc2)S(=O)(=O)c2ccc(F)cc2)nc2ccccc21 [compound 28]
inhibition at 0.2 µM [1]: 95% | IC50 [2]: 6 nM

O=S(=O)(c1ccccc1)N(Cc1ccc(OC(F)(F)F)cc1)c1nc2cccc3c2n1CCC3 [compound 62]
inhibition at 0.2 µM [1]: 100% | IC50 [2]: 19 nM

CCCCN(c1nc2ccccc2n1CCO)S(=O)(=O)c1ccccc1 [compound 2, N-butyl-N-[1-(2-hydroxy-ethyl)-1H-benzimidazol-2-yl]-benzenesulfonamide]
inhibition at 0.2 µM [1]: 11%

Cc1cc2nc(N(Cc3ccc(C(F)(F)F)c(F)c3)S(=O)(=O)c3ccccc3)n(C)c2cc1C [compound 75]
inhibition at 0.2 µM [1]: 101% | IC50 [2]: 28 nM

Cn1c(N(Cc2ccc(C(F)(F)F)c(F)c2)S(=O)(=O)c2ccccc2)nc2cc(F)ccc21 [compound 58]
inhibition at 0.2 µM [1]: 99% | IC50 [2]: 6 nM

CN(c1nc2ccccc2n1C)S(=O)(=O)c1ccccc1 [Compound #3, N-methyl-N-(1-methyl-1H-benzimidazol-2-yl)-benzenesulfonamide]
inhibition at 0.2 µM [1]: 9% | inhibition at 1 µM (re-test, 1 μM, 10 mM stock diluted with 100% DMSO prior to addition to assay buffer): 101% | IC50 (re-test, 10 mM stock diluted with 100% DMSO prior to addition to assay buffer, read-out: calculated IC50): 94 nM

Cc1ccc(S(=O)(=O)N(Cc2ccc(F)c(C(F)(F)F)c2)c2nc3ccccc3n2C)cc1 [compound 18]
inhibition at 0.2 µM [1]: 106% | IC50 [2]: 14 nM

CCn1c(N(Cc2ccc(C(F)(F)F)c(F)c2)S(=O)(=O)c2ccccc2)nc2ccccc21 [compound 34]
inhibition at 0.2 µM [1]: 102% | IC50 [2]: 7 nM

O=S(=O)(c1ccccc1)N(Cc1ccc(C(F)(F)F)cc1)c1nc2ccccc2n1CC1CC1 [compound 70]
inhibition at 0.2 µM [1]: 101% | IC50 [2]: 35 nM

O=S(=O)(c1ccccc1)N(Cc1ccc(C(F)(F)F)c(F)c1)c1nc2cccc3c2n1CCC3 [compound 63]
inhibition at 0.2 µM [1]: 101% | IC50 [2]: 22 nM

Cn1c(N(Cc2ccc(C(F)(F)F)c(F)c2)S(=O)(=O)c2ccc(C(F)(F)F)cc2)nc2ccccc21 [compound 40]
inhibition at 0.2 µM [1]: 101% | IC50 [2]: 60 nM

O=S(=O)(c1ccccc1)N(Cc1ccc(OC(F)(F)F)cc1)c1nc2ccccc2n1CC1CC1 [compound 69]
inhibition at 0.2 µM [1]: 101% | IC50 [2]: 26 nM

Cn1c(N(Cc2ccc(OC(F)(F)F)cc2)S(=O)(=O)c2ccc(Cl)cc2)nc2ccccc21 [compound 26]
inhibition at 0.2 µM [1]: 102% | IC50 [2]: 11 nM

Cn1c(N(Cc2ccc(F)c(C(F)(F)F)c2)S(=O)(=O)c2cccc(Cl)c2)nc2ccccc21 [compound 14]
inhibition at 0.2 µM [1]: 97% | IC50 [2]: 30 nM

Cn1c(N(Cc2cccc(OC(F)(F)F)c2)S(=O)(=O)c2ccccc2)nc2ccccc21 [compound 13]
inhibition at 0.2 µM [1]: 101% | IC50 [2]: 3 nM

CCCCN(c1nc2ccccc2n1C)S(=O)(=O)c1ccccc1 [Compound #4, N-Butyl-N-(1-methyl-1H-benzimidazol-2-yl)-benzenesulfonamide]
inhibition at 0.2 µM [1]: 92% | IC50 [2]: 41 nM

Cn1c(N(Cc2ccc(C(F)(F)F)cc2)S(=O)(=O)c2ccccc2)nc2ccccc21 [compound 11]
inhibition at 0.2 µM [1]: 101% | IC50 [2]: 2 nM

CCn1c(N(Cc2ccc(C(F)(F)F)cc2)S(=O)(=O)c2ccccc2)nc2ccccc21 [compound 30]
inhibition at 0.2 µM [1]: 96% | IC50 [2]: 4 nM

O=S(=O)(c1ccccc1)N(Cc1ccc(C(F)(F)F)cc1)c1nc2cccc3c2n1CCO3 [Compound #72, N-(3,4-Dihydro-5-oxa-1,2a-diaza-acenaphthylen-2-yl)-N-(4-trifluoromethyl-benzyl)-benzenesulfonamide TFA salt]
inhibition at 0.2 µM [1]: 99% | IC50 [2]: 22 nM

CCn1c(N(Cc2ccc(C(F)(F)F)c(F)c2)S(=O)(=O)c2ccccc2)nc2cc(F)ccc21 [compound 48]
inhibition at 0.2 µM [1]: 100% | IC50 [2]: 7 nM

Cn1c(N(Cc2ccc(C(F)(F)F)cc2)S(=O)(=O)c2ccc(C(F)(F)F)cc2)nc2ccccc21 [compound 31]
inhibition at 0.2 µM [1]: 96% | IC50 [2]: 33 nM

O=S(=O)(c1ccccc1)N(Cc1ccc(C(F)(F)F)c(F)c1)c1nc2ccccc2n1CC1CC1 [Compound #71, N-(1-Cyclopropylmethyl-1H-benzimidazol-2-yl)-N-(3-fluoro-4-trifluoromethyl-benzyl)-benzenesulfonamide]
inhibition at 0.2 µM [1]: 101% | IC50 [2]: 37 nM

Cn1c(N(Cc2ccc(C(F)(F)F)c(F)c2)S(=O)(=O)c2ccc(F)cc2)nc2ccccc21 [compound 38]
inhibition at 0.2 µM [1]: 102% | IC50 [2]: 11 nM

Cn1c(N(Cc2ccc(C(F)(F)F)c(F)c2)S(=O)(=O)c2ccccc2)nc2ccccc21 [compound 21]
inhibition at 0.2 µM [1]: 102% | IC50 [2]: 1 nM

Cn1c(N(c2ccc(Cl)cc2)S(=O)(=O)c2ccccc2)nc2ccccc21 [Compound #36, N-(4-Chloro-phenyl)-N-(1-methyl-1H-benzimidazol-2-yl)-benzenesulfonamide]
inhibition at 0.2 µM [1]: 94% | IC50 [2]: 33 nM

Cn1c(N(Cc2ccc(F)c(F)c2)S(=O)(=O)c2ccccc2)nc2ccccc21 [compound 9]
inhibition at 0.2 µM [1]: 101% | IC50 [2]: 2 nM

Cn1c(N(Cc2ccc(SC(F)(F)F)cc2)S(=O)(=O)c2ccccc2)nc2ccccc21 [compound 19]
inhibition at 0.2 µM [1]: 101% | IC50 [2]: 1 nM

O=S(=O)(c1ccccc1)N(Cc1ccc(C(F)(F)F)cc1)c1nc2cccc3c2n1CCC3 [compound 65]
inhibition at 0.2 µM [1]: 101% | IC50 [2]: 17 nM

Cn1c(N(Cc2ccc(OC(F)(F)F)cc2)S(=O)(=O)c2ccccc2)nc2cc(F)ccc21 [compound 57]
inhibition at 0.2 µM [1]: 99% | IC50 [2]: 9 nM

Cn1c(N(Cc2ccc(C(F)(F)F)c(F)c2)S(=O)(=O)c2ccc(Cl)cc2)nc2ccccc21 [compound 39]
inhibition at 0.2 µM [1]: 102% | IC50 [2]: 10 nM

CCn1c(N(Cc2ccc(OC(F)(F)F)cc2)S(=O)(=O)c2ccccc2)nc2ccccc21 [compound 29]
inhibition at 0.2 µM [1]: 95% | IC50 [2]: 5 nM

Cn1c(N(Cc2ccc(F)c(C(F)(F)F)c2)S(C)(=O)=O)nc2ccccc21 [compound 17]
inhibition at 0.2 µM [1]: 99% | IC50 [2]: 5 nM

Cc1cc2nc(N(Cc3ccc(OC(F)(F)F)cc3)S(=O)(=O)c3ccccc3)n(C)c2cc1C [compound 74]
inhibition at 0.2 µM [1]: 99% | IC50 [2]: 19 nM

O=S(=O)(c1ccccc1)N(Cc1ccc(OC(F)(F)F)cc1)c1nc2cccc3c2n1CCO3 [Compound #73]
inhibition at 0.2 µM [1]: 99% | IC50 [2]: 3.4 nM

CC(C)Cn1c(N(Cc2ccc(C(F)(F)F)cc2)S(=O)(=O)c2ccccc2)nc2ccccc21 [compound 24]
inhibition at 0.2 µM [1]: 71% | IC50 [2]: 77 nM

Cc1ccc2nc(N(Cc3ccc(OC(F)(F)F)cc3)S(=O)(=O)c3ccccc3)n(C)c2c1 [compound 66]
inhibition at 0.2 µM [1]: 98% | IC50 [2]: 21 nM

CC(C)n1c(N(Cc2ccc(OC(F)(F)F)cc2)S(=O)(=O)c2ccccc2)nc2cc(Cl)ccc21 [compound 61]
inhibition at 0.2 µM [1]: 96% | IC50 [2]: 47 nM

Cn1c(N(Cc2ccc(OC(F)(F)F)cc2)S(=O)(=O)c2ccc(C(F)(F)F)cc2)nc2ccccc21 [compound 27]
inhibition at 0.2 µM [1]: 101% | IC50 [2]: 49 nM

CC(C)Cn1c(N(Cc2ccc(OC(F)(F)F)cc2)S(=O)(=O)c2ccccc2)nc2ccccc21 [compound 49]
inhibition at 0.2 µM [1]: 81% | IC50 [2]: 48 nM

O=S(=O)(c1ccccc1)N(Cc1ccc(C(F)(F)F)c(F)c1)c1nc2ccccc2n1CC(F)(F)F [Compound #60, N-(3-Fluoro-4-trifluoromethyl-benzyl)-N-[1-(2,2,2-trifluoro-ethyl)-1H-benzimidazol-2-yl]-benzenesulfonamide]
inhibition at 0.2 µM [1]: 89% | IC50 [2]: 27 nM

CC(C)n1c(N(Cc2ccc(C(F)(F)F)c(F)c2)S(=O)(=O)c2ccccc2)nc2cc(Cl)ccc21 [compound 56]
inhibition at 0.2 µM [1]: 96% | IC50 [2]: 24 nM

Source: patent publication US8242157B2, “Benzimidazole derivatives useful as TRPM8 channel modulators” (Janssen Pharmaceutica NV, priority 2009, dated 2012)
